ChEMBL document CHEMBL1142867, “Antiviral activity of triazine analogues of 1-(S)-[3-hydroxy-2-(phosphonomethoxy)propyl]cytosine (cidofovir) and related compounds” (J Med Chem, 2007)
Values after ≈ are worked out from the molar mass of the structure shown.

What was measured:
Coxsackievirus B4 [1] = type: functional, organism-based; settings: Enterovirus B, HeLa
[2] = tested on: Vesicular stomatitis virus; assay: microbe, parasite or virus in culture; settings: E6SM
Human alphaherpesvirus 3 [3] = assay: Antiviral activity against TK- VZV 07-1 in HEL cells assessed as inhibition of plaque formation; type: functional, organism-based; settings: Human alphaherpesvirus 3, 07-1, HEL
[4] = tested on: Respiratory syncytial virus; type: functional, organism-based; settings: human respiratory syncytial virus, Long, HeLa
Human alphaherpesvirus 2 [5] = type: functional, organism-based; settings: Human alphaherpesvirus 2, Lyons, HEL
Human alphaherpesvirus 1 [6] = type: functional, organism-based; settings: Human alphaherpesvirus 1, KOS, HEL
Human adenovirus 2 = type: functional, organism-based; settings: Human mastadenovirus C, HEL
[7] = tested on: Mammalian orthoreovirus 1; type: functional, organism-based; settings: Mammalian orthoreovirus 1, Vero
[8] = Cytotoxicity against HEL cells assessed as alteration in cell morphology after 3 days; type: cell-based; settings: human, read-out: Activity
[9] = tested on: Moloney murine sarcoma virus; assay: Antiviral activity against MSV in mouse C3H cells assessed as inhibition of virus-induced transformation after 6 days; type: functional, organism-based; settings: 144 h
HEL = assay: Cytotoxicity against HEL cells assessed as inhibition of cell growth after 3 days; type: cell-based; settings: human, 72 h
[10] = Cytotoxicity against HSB2 cells assessed as alteration in cell morphology; type: cell-based, CCRF-HSB-2; settings: human, read-out: Activity
[11] = tested on: Vesicular stomatitis virus; assay: microbe, parasite or virus in culture; settings: HeLa
[12] = Cytotoxicity against C3H cells assessed as alteration in cell morphology; type: cell-based; settings: mouse
Coxsackievirus B4 [13] = type: functional, organism-based; settings: Enterovirus B, Vero
Human alphaherpesvirus 2 [14] = type: functional, organism-based; settings: Human alphaherpesvirus 2, G, HEL
[15] = Cytotoxicity against Vero cells assessed as alteration in cell morphology; type: cell-based; settings: chlorocebus sabaeus
[16] = Cytotoxicity against HeLa cells assessed as alteration in cell morphology; type: cell-based; settings: human
Human betaherpesvirus 5 [17] = type: functional, organism-based; settings: Human betaherpesvirus 5, Davis, HEL
[18] = tested on: Human immunodeficiency virus 2; type: functional, organism-based; settings: Human immunodeficiency virus 2, ROD, CCRF-CEM
Human alphaherpesvirus 1 [19] = type: functional, organism-based; settings: Human alphaherpesvirus 1, KOS, HEL; remark: listed apart in the source
Vaccinia virus = type: functional, organism-based; settings: Orthopoxvirus vaccinia, Lederle, HEL
[20] = Cytotoxicity against CEM cells assessed as reduction of cell growth; type: cell-based; settings: human, CEM (CCRF-CEM) cells
[21] = Cytotoxicity against E6SM cells assessed as alteration in cell morphology; type: cell-based; settings: human
Human betaherpesvirus 5 [22] = type: functional, organism-based; settings: Human betaherpesvirus 5, AD169, HEL
Sindbis virus = type: functional, organism-based; settings: Vero
Human respirovirus 3 = type: functional, organism-based; settings: Human respirovirus 3, Vero
Punta Toro virus = type: functional, organism-based; settings: Vero
Human alphaherpesvirus 3 [23] = assay: Antiviral activity against VZV OKA in HEL cells assessed as inhibition of plaque formation; type: functional, organism-based; settings: Human alphaherpesvirus 3, OKA
[24] = tested on: Human immunodeficiency virus 1; type: functional, organism-based; settings: Human immunodeficiency virus 1, 3B, CCRF-CEM
Yellow fever virus = type: functional, organism-based; settings: Vero
[25] = Cytotoxicity against Huh5-2 cells assessed as reduction of cell growth; type: cell-based, Huh-5-2; settings: human
Hepatitis C virus = assay: Antiviral activity against HCV in Huh5-2 cells assessed as inhibition of HCV subgenomic replicon replication; type: functional, organism-based, Hepacivirus hominis; settings: Huh-5-2

NC(=NC(=O)NC[C@@H](CO)OCP(=O)(O)O)NC=O
EC50 (Coxsackievirus B4 [1]): > 100 µg/mL
EC50 [2]: > 100 µg/mL
EC50 (Human alphaherpesvirus 3 [3]): 0.046 µg/mL (≈ 0.154 µM)
EC50 [4]: > 100 µg/mL
EC50 (Human alphaherpesvirus 2 [5]): 3.16 µg/mL (≈ 10.6 µM)
EC50 (Human alphaherpesvirus 1 [6]): 1.35 µg/mL (≈ 4.53 µM)
EC50 (Human adenovirus 2): 17.8 µg/mL (≈ 59.7 µM)
EC50 [7]: > 100 µg/mL
MCC at 72 h [8]: > 50 µg/mL
EC50 [9]: 130 µg/mL (≈ 436 µM)
Activity (HEL): > 50 µg/mL
MCC [10]: ≥ 200 µg/mL
EC50 [11]: > 100 µg/mL
MCC [12]: > 100 µg/mL
EC50 (Coxsackievirus B4 [13]): > 100 µg/mL
EC50 (Human alphaherpesvirus 2 [14]): 6.58 µg/mL (≈ 22.1 µM)
MCC [15]: > 100 µg/mL
MCC [16]: > 100 µg/mL
EC50 (Human betaherpesvirus 5 [17]): 0.12 µg/mL (≈ 0.402 µM)
EC50 [18]: > 100 µg/mL
EC50 (Human alphaherpesvirus 1 [19]): 2.85 µg/mL (≈ 9.56 µM)
EC50 (Vaccinia virus): 8.35 µg/mL (≈ 28 µM)
CC50 [20]: ≥ 100 µg/mL
MCC [21]: > 100 µg/mL
EC50 (Human betaherpesvirus 5 [22]): 0.1 µg/mL (≈ 0.335 µM)
EC50 (Sindbis virus): > 100 µg/mL
EC50 (Human respirovirus 3): > 100 µg/mL
EC50 (Punta Toro virus): > 100 µg/mL
EC50 (Human alphaherpesvirus 3 [23]): 0.042 µg/mL (≈ 0.141 µM)
EC50 [24]: > 100 µg/mL

Nc1ncn(CCOCP(=O)(O)O)c(=O)n1
EC50 (Coxsackievirus B4 [1]): > 80 µg/mL
EC50 [2]: > 80 µg/mL
EC50 (Human alphaherpesvirus 3 [3]): 10 µg/mL (≈ 40 µM)
EC50 [4]: > 80 µg/mL
EC50 (Human alphaherpesvirus 2 [5]): 39.3 µg/mL (≈ 157 µM)
EC50 (Human alphaherpesvirus 1 [6]): 9.9 µg/mL (≈ 39.6 µM)
EC50 [7]: > 80 µg/mL
MCC at 72 h [8]: > 100 µg/mL
EC50 [9]: 7.5 µg/mL (≈ 30 µM)
Activity (HEL): > 50 µg/mL
EC50 (Yellow fever virus): > 100 µg/mL
EC50 [11]: > 80 µg/mL
MCC [12]: 200 µg/mL
CC50 [25]: > 50 µg/mL
EC50 (Coxsackievirus B4 [13]): > 80 µg/mL
EC50 (Human alphaherpesvirus 2 [14]): 25.8 µg/mL (≈ 103 µM)
MCC [15]: 400 µg/mL
MCC [16]: 400 µg/mL
EC50 (Human betaherpesvirus 5 [17]): 37 µg/mL (≈ 148 µM)
EC50 [18]: > 100 µg/mL
EC50 (Human alphaherpesvirus 1 [19]): 17 µg/mL (≈ 68 µM)
EC50 (Vaccinia virus): > 100 µg/mL
EC50 (Hepatitis C virus): > 50 µg/mL
CC50 [20]: 96 µg/mL (≈ 384 µM)
MCC [21]: 400 µg/mL
EC50 (Human betaherpesvirus 5 [22]): 49 µg/mL (≈ 196 µM)
EC50 (Sindbis virus): > 80 µg/mL
EC50 (Human respirovirus 3): > 80 µg/mL
EC50 (Punta Toro virus): > 80 µg/mL
EC50 (Human alphaherpesvirus 3 [23]): 25 µg/mL (≈ 99.9 µM)
EC50 [24]: > 100 µg/mL

NC(N)=NC(=O)NC[C@@H](CO)OCP(=O)(O)O
EC50 (Coxsackievirus B4 [1]): > 100 µg/mL
EC50 [2]: > 100 µg/mL
EC50 (Human alphaherpesvirus 3 [3]): > 50 µg/mL
EC50 [4]: > 100 µg/mL
EC50 (Human alphaherpesvirus 2 [5]): > 50 µg/mL
EC50 (Human alphaherpesvirus 1 [6]): > 50 µg/mL
EC50 (Human adenovirus 2): > 100 µg/mL
EC50 [7]: > 100 µg/mL
MCC at 72 h [8]: > 50 µg/mL
EC50 [9]: 68 µg/mL (≈ 252 µM)
Activity (HEL): > 50 µg/mL
EC50 (Yellow fever virus): > 100 µg/mL
MCC [10]: > 200 µg/mL
EC50 [11]: > 100 µg/mL
MCC [12]: > 100 µg/mL
CC50 [25]: > 50 µg/mL
EC50 (Coxsackievirus B4 [13]): > 100 µg/mL
EC50 (Human alphaherpesvirus 2 [14]): > 50 µg/mL
MCC [15]: > 100 µg/mL
MCC [16]: > 100 µg/mL
EC50 (Human betaherpesvirus 5 [17]): 36.8 µg/mL (≈ 136 µM)
EC50 [18]: > 100 µg/mL
EC50 (Human alphaherpesvirus 1 [19]): > 50 µg/mL
EC50 (Vaccinia virus): > 100 µg/mL
CC50 [20]: > 100 µg/mL
MCC [21]: > 100 µg/mL
EC50 (Human betaherpesvirus 5 [22]): 35.5 µg/mL (≈ 131 µM)
EC50 (Sindbis virus): > 100 µg/mL
EC50 (Human respirovirus 3): > 100 µg/mL
EC50 (Punta Toro virus): > 100 µg/mL
EC50 (Human alphaherpesvirus 3 [23]): > 50 µg/mL
EC50 [24]: > 100 µg/mL

Nc1cnn(C[C@@H](CO)OCP(=O)(O)O)c(=O)n1
EC50 (Coxsackievirus B4 [1]): > 400 µg/mL
EC50 [2]: > 400 µg/mL
EC50 (Human alphaherpesvirus 3 [3]): 18.4 µg/mL (≈ 65.7 µM)
EC50 [4]: > 400 µg/mL
EC50 (Human alphaherpesvirus 2 [5]): ≥ 43.4 µg/mL
EC50 (Human alphaherpesvirus 1 [6]): 8.84 µg/mL (≈ 31.6 µM)
EC50 (Human adenovirus 2): > 100 µg/mL
EC50 [7]: > 80 µg/mL
MCC at 72 h [8]: > 100 µg/mL
EC50 [9]: 170 µg/mL (≈ 607 µM)
Activity (HEL): > 50 µg/mL
EC50 (Yellow fever virus): > 100 µg/mL
EC50 [11]: > 400 µg/mL
MCC [12]: 100 µg/mL
CC50 [25]: 111 µg/mL (≈ 396 µM)
EC50 (Coxsackievirus B4 [13]): > 80 µg/mL
EC50 (Human alphaherpesvirus 2 [14]): 31.5 µg/mL (≈ 112 µM)
MCC [15]: 400 µg/mL
MCC [16]: > 400 µg/mL
EC50 (Human betaherpesvirus 5 [17]): 37.3 µg/mL (≈ 133 µM)
EC50 [18]: > 100 µg/mL
EC50 (Human alphaherpesvirus 1 [19]): 24.9 µg/mL (≈ 88.9 µM)
EC50 (Vaccinia virus): 63.1 µg/mL (≈ 225 µM)
EC50 (Hepatitis C virus): 750 µg/mL (≈ 2680 µM)
CC50 [20]: > 100 µg/mL
MCC [21]: > 400 µg/mL
EC50 (Human betaherpesvirus 5 [22]): 30 µg/mL (≈ 107 µM)
EC50 (Sindbis virus): > 80 µg/mL
EC50 (Human respirovirus 3): > 80 µg/mL
EC50 (Punta Toro virus): > 80 µg/mL
EC50 (Human alphaherpesvirus 3 [23]): 38.2 µg/mL (≈ 136 µM)
EC50 [24]: > 100 µg/mL

Nc1ncn(C[C@@H](CO)OCP(=O)(O)O)c(=O)n1
EC50 (Coxsackievirus B4 [1]): > 400 µg/mL
EC50 [2]: > 400 µg/mL
EC50 (Human alphaherpesvirus 3 [3]): 0.019 µg/mL (≈ 0.0678 µM)
EC50 [4]: > 400 µg/mL
EC50 (Human alphaherpesvirus 2 [5]): 0.25 µg/mL (≈ 0.892 µM)
EC50 (Human alphaherpesvirus 1 [6]): 0.077 µg/mL (≈ 0.275 µM)
EC50 [7]: > 80 µg/mL
MCC at 72 h [8]: > 50 µg/mL
EC50 [9]: 22 µg/mL (≈ 78.5 µM)
Activity (HEL): >= 140 ug ml-1
EC50 (Yellow fever virus): > 100 µg/mL
MCC [10]: 16 µg/mL
EC50 [11]: > 400 µg/mL
MCC [12]: 20 µg/mL
CC50 [25]: > 50 µg/mL
EC50 (Coxsackievirus B4 [13]): > 80 µg/mL
EC50 (Human alphaherpesvirus 2 [14]): 0.35 µg/mL (≈ 1.25 µM)
MCC [15]: 400 µg/mL
MCC [16]: > 400 µg/mL
EC50 (Human betaherpesvirus 5 [17]): 0.054 µg/mL (≈ 0.193 µM)
EC50 [18]: > 100 µg/mL
EC50 (Human alphaherpesvirus 1 [19]): 0.24 µg/mL (≈ 0.857 µM)
EC50 (Vaccinia virus): 2.56 µg/mL (≈ 9.14 µM)
EC50 (Hepatitis C virus): > 50 µg/mL
CC50 [20]: 28 µg/mL (≈ 99.9 µM)
MCC [21]: > 400 µg/mL
EC50 (Human betaherpesvirus 5 [22]): 0.078 µg/mL (≈ 0.278 µM)
EC50 (Sindbis virus): > 80 µg/mL
EC50 (Human respirovirus 3): > 80 µg/mL
EC50 (Punta Toro virus): > 80 µg/mL
EC50 (Human alphaherpesvirus 3 [23]): 0.027 µg/mL (≈ 0.0964 µM)
EC50 [24]: > 100 µg/mL
